Here are results for 17 compounds from PubChem BioAssay AID328 (DTP/NCI, 2004).

The test concerns BDF1 mice, P388 leukemia ip, median survival T/C. Kind of test: NCI In Vivo Anticancer Drug Screen. Data for tumor model P388 Leukemia (intraperitoneal) in B6D2F1 (BDF1) mice. The conditions noted are these: endpoint: median survival time, higher = longer survival. Put shortly: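 Reported as T/C, where T is the survival measurement in dosed animals and C the same measurement in vehicle controls.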

[1] abbreviates: dose: 100.0 mg/kg/injection, schedule: Q04DX003 (ip), vehicle: Klucel (hydroxypropylcellulose) (HPC).
The mark [2] stands for this setting: dose: 200.0 mg/kg/injection, schedule: Q04DX003 (ip), vehicle: Klucel (hydroxypropylcellulose) (HPC).
Where [3] appears, read: dose: 400.0 mg/kg/injection, schedule: Q04DX003 (ip), vehicle: Klucel (hydroxypropylcellulose) (HPC).
Setting [4] is: dose: 100.0 mg/kg/injection, schedule: Q01DX009 (ip), vehicle: saline with Tween-80.
[5] abbreviates: dose: 100.0 mg/kg/injection, schedule: Q04DX003 (ip), vehicle: saline with Tween-80.
[6] abbreviates: dose: 200.0 mg/kg/injection, schedule: Q01DX009 (ip), vehicle: saline with Tween-80.
Setting [7] is: dose: 200.0 mg/kg/injection, schedule: Q04DX003 (ip), vehicle: saline with Tween-80.
Where [8] appears, read: dose: 400.0 mg/kg/injection, schedule: Q01DX009 (ip), vehicle: saline with Tween-80.
Where [9] appears, read: dose: 400.0 mg/kg/injection, schedule: Q04DX003 (ip), vehicle: saline with Tween-80.
[10] abbreviates: dose: 50.0 mg/kg/injection, schedule: Q01DX009 (ip), vehicle: saline with Tween-80.
[11] abbreviates: dose: 25.0 mg/kg/injection, schedule: Q01DX009 (ip), vehicle: saline.
The mark [12] stands for this setting: dose: 50.0 mg/kg/injection, schedule: Q01DX009 (ip), vehicle: saline.

Where “and” joins values, the source holds several entries; their conditions need not be identical. Equal entries are not always repeated. Inconclusive results and toxic doses are left out.

Consider `O=c1[nH]c2ccccc2c(=O)n1C1CCCCC1`, for which the T/C is 111 % of control (dose: 12.5 mg/kg/injection, schedule: Q01DX009 (ip), vehicle: water); 96 % of control (dose: 12.5 mg/kg/injection, schedule: Q04DX003 (ip), vehicle: water); 111 % of control (dose: 25.0 mg/kg/injection, schedule: Q01DX009 (ip), vehicle: water); 100 % of control (dose: 25.0 mg/kg/injection, schedule: Q04DX003 (ip), vehicle: water); 107 % of control (dose: 50.0 mg/kg/injection, schedule: Q04DX003 (ip), vehicle: water); 106 % of control (dose: 100.0 mg/kg/injection, schedule: Q01DX009 (ip), vehicle: water). For the same compound, the T/C is 105 % of control (dose: 100.0 mg/kg/injection, schedule: Q04DX003 (ip), vehicle: water); 101 % of control (dose: 200.0 mg/kg/injection, schedule: Q01DX009 (ip), vehicle: water); 101 % of control (dose: 400.0 mg/kg/injection, schedule: Q01DX009 (ip), vehicle: water).

For `CC(=O)[C@H]1CC[C@H]2[C@@H]3C[C@H](F)C4=CC(=O)CC[C@]4(C)[C@@]3(F)[C@@H](O)C[C@]12C`, the T/C (dose: 12.0 mg/kg/injection, schedule: Q01DX009 (ip), vehicle: Klucel (hydroxypropylcellulose) (HPC)) is 122 % of control; the T/C (dose: 12.5 mg/kg/injection, schedule: Q01DX009 (ip), vehicle: Klucel (hydroxypropylcellulose) (HPC)) is 115 % of control; the T/C (dose: 25.0 mg/kg/injection, schedule: Q01DX009 (ip), vehicle: Klucel (hydroxypropylcellulose) (HPC)) was 100 % of control and 103 % of control; the T/C (dose: 50.0 mg/kg/injection, schedule: Q01DX009 (ip), vehicle: Klucel (hydroxypropylcellulose) (HPC)) is 90 % of control and 100 % of control; the T/C under setting [1] was 95 % of control and 113 % of control; the T/C under setting [2] is 95 % of control and 113 % of control. Under setting [3], the T/C was 95 % of control and 104 % of control and 109 % of control.

As for `CCCCCCCCCCCCCCCC(=O)N(c1ccc(N)cc1)C(C)CCCN(CC)CC` (configuration not stated), the T/C under setting [4] is 89 % of control; the T/C under setting [5] was 90 % of control; the T/C under setting [6] is 98 % of control; the T/C under setting [7] is 90 % of control; the T/C under setting [8] was 100 % of control; the T/C under setting [9] was 90 % of control.

As for `COc1ccc(/C=C2\N=C(c3ccccc3)OC2=O)cc1OC`, the T/C by setting is: (dose: 100.0 mg/kg/injection, schedule: Q01DX001 (ip), vehicle: saline) 90 % of control; (dose: 200.0 mg/kg/injection, schedule: Q01DX001 (ip), vehicle: saline) 104 % of control; (dose: 400.0 mg/kg/injection, schedule: Q01DX001 (ip), vehicle: saline) 104 % of control.

For `CC1(C)S[C@@H]2[C@H](NC(=O)CCC[C@@H](N)C(=O)O)C(=O)N2[C@H]1C(=O)O`, the T/C by setting is: (dose: 23.0 mg/kg/injection, schedule: Q01DX009 (ip), vehicle: saline) 99 % of control; (dose: 47.0 mg/kg/injection, schedule: Q01DX009 (ip), vehicle: saline) 106 % of control; (dose: 94.0 mg/kg/injection, schedule: Q01DX009 (ip), vehicle: saline) 107 % of control and 117 % of control and 120 % of control; (dose: 188.0 mg/kg/injection, schedule: Q01DX009 (ip), vehicle: saline) 102 % of control and 104 % of control and 106 % of control; (dose: 750.0 mg/kg/injection, schedule: Q01DX009 (ip), vehicle: saline) 95 % of control and 102 % of control.

`CC(Br)C(=O)c1ccc(OCc2ccccc2)cc1` (configuration not stated): the T/C under setting [10] was 117 % of control and the T/C under setting [4] was 119 % of control.

On to `Nc1nccnc1N`, for which the T/C was 110 % of control under setting [10]; 95 % of control (dose: 50.0 mg/kg/injection, schedule: Q04DX003 (ip), vehicle: saline with Tween-80); 115 % of control under setting [4]; 100 % of control under setting [5]; 120 % of control under setting [6]; 87 % of control under setting [7].

Take `COC1=C(N)C(=O)c2ncccc2C1=O`: the T/C is 113 % of control (dose: 4.0 mg/kg/injection, schedule: Q01DX010 (ip), vehicle: acetone) and 109 % of control (dose: 8.0 mg/kg/injection, schedule: Q01DX010 (ip), vehicle: acetone).

Regarding `COc1cc([C@@H]2c3cc4c(cc3[C@H](SC(=N)N)[C@H]3COC(=O)[C@H]23)OCO4)cc(OC)c1OC`, the T/C by setting is: (dose: 1.4 mg/kg/injection, schedule: Q01DX010 (ip), vehicle: carboxymethylcellulose (CMC)) 105 % of control; (dose: 2.8 mg/kg/injection, schedule: Q01DX010 (ip), vehicle: carboxymethylcellulose (CMC)) 100 % of control; (dose: 5.6 mg/kg/injection, schedule: Q01DX010 (ip), vehicle: carboxymethylcellulose (CMC)) 110 % of control; (dose: 18.0 mg/kg/injection, schedule: Q01DX009 (ip), vehicle: Klucel (hydroxypropylcellulose) (HPC)) 152 % of control; (dose: 27.0 mg/kg/injection, schedule: Q01DX009 (ip), vehicle: Klucel (hydroxypropylcellulose) (HPC)) 171 % of control.

Consider `CC(=O)N1C(=O)N(Cl)C(=O)C1(c1ccc(Cl)cc1)c1ccc(Cl)cc1`, for which the T/C is 116 % of control (dose: 60.0 mg/kg/injection, schedule: Q01DX009 (ip), vehicle: saline with Tween-80); 91 % of control under setting [4]; 113 % of control under setting [5]; 113 % of control under setting [6]; 109 % of control under setting [7]; 122 % of control under setting [9].

Consider `Cc1ccc(-c2nc3ccccc3c(=O)n2/N=C/c2cccc3ccccc23)cc1`, for which the T/C is 90 % of control under setting [10] and 89 % of control under setting [4].

Consider `COc1ccc(/C=C/C(=O)c2ccc(OC)cc2)cc1`, for which the T/C runs as follows: under setting [1], 100 % of control; under setting [2], 104 % of control; under setting [3], 95 % of control.

With `O=C(O)C(CSC(c1ccccc1)(c1ccccc1)c1ccccc1)N=Cc1cccs1` (configuration not stated), the T/C was 118 % of control (dose: 2.1 mg/kg/injection, schedule: Q01DX009 (ip), vehicle: saline); 109 % of control (dose: 3.1 mg/kg/injection, schedule: Q01DX009 (ip), vehicle: saline); 175 % of control (dose: 7.2 mg/kg/injection, schedule: Q01DX009 (ip), vehicle: saline); 189 % of control (dose: 11.0 mg/kg/injection, schedule: Q01DX009 (ip), vehicle: saline); 163 % of control (dose: 16.0 mg/kg/injection, schedule: Q01DX009 (ip), vehicle: saline); 185 % of control under setting [11]. In addition, the T/C was 200 % of control under setting [12]; 272 % of control and 177 % of control (dose: 66.0 mg/kg/injection, schedule: Q01DX009 (ip), vehicle: saline); 250 % of control and 90 % of control and 218 % of control (dose: 100.0 mg/kg/injection, schedule: Q01DX009 (ip), vehicle: saline); 100 % of control (dose: 150.0 mg/kg/injection, schedule: Q01DX009 (ip), vehicle: saline).

With `COc1cc2c(cc1OC)[C@]13C[C@H](OC)CC=C1CCN3CCC2`, the T/C by setting is: (dose: 10.0 mg/kg/injection, schedule: Q01DX009 (ip), vehicle: alcohol) 86 % of control; (dose: 20.0 mg/kg/injection, schedule: Q01DX009 (ip), vehicle: alcohol) 100 % of control; (dose: 40.0 mg/kg/injection, schedule: Q01DX009 (ip), vehicle: alcohol) 100 % of control; (dose: 80.0 mg/kg/injection, schedule: Q01DX009 (ip), vehicle: alcohol) 95 % of control.

As to `O=C(Nc1ccc(CCNC2=NCCN2)cc1)c1ccc(C(=O)Nc2ccc(CCNC3=NCCN3)cc2)cc1`, the T/C runs as follows: (dose: 1.0 mg/kg/injection, schedule: Q01DX009 (ip), vehicle: saline) 106 % of control; (dose: 2.0 mg/kg/injection, schedule: Q01DX009 (ip), vehicle: saline) 106 % of control; (dose: 8.2 mg/kg/injection, schedule: Q01DX009 (ip), vehicle: saline) 199 % of control; (dose: 12.5 mg/kg/injection, schedule: Q01DX009 (ip), vehicle: saline) 226 % of control and 254 % of control; (dose: 18.0 mg/kg/injection, schedule: Q01DX009 (ip), vehicle: saline) 226 % of control; under setting [11], 156 % of control. Also, under setting [12], the T/C was 122 % of control.

`CCOc1ccc(Br)cc1C=O`: the T/C under setting [4] was 100 % of control; the T/C under setting [5] is 90 % of control; the T/C under setting [6] is 100 % of control; the T/C under setting [7] is 95 % of control; the T/C under setting [8] is 100 % of control; the T/C under setting [9] was 100 % of control.

For the compound `Nc1ncc2[nH]c(C(F)(F)F)nc2n1`, the T/C runs as follows: under setting [10], 102 % of control; under setting [4], 102 % of control; under setting [6], 105 % of control; under setting [8], 117 % of control.
